We go through six molecules from publication PMC12560751 (RSC Advances, 2025).

In one series the test system is NIH/3T3 cell lines. Put plainly: Cytotoxicity, 24-hour MTT assay. The format is cell-based. The following applies: for IC50: Mus musculus, NIH3T3, 24 h, read-out: IC50 against NIH/3T3. A general note: Formazan colour is commonly taken as a measure of viable cells.
For a further series, the target named is T1, hMAO A (Homo sapiens, UniProt P21397).
T1 sequence (P21397 1-527): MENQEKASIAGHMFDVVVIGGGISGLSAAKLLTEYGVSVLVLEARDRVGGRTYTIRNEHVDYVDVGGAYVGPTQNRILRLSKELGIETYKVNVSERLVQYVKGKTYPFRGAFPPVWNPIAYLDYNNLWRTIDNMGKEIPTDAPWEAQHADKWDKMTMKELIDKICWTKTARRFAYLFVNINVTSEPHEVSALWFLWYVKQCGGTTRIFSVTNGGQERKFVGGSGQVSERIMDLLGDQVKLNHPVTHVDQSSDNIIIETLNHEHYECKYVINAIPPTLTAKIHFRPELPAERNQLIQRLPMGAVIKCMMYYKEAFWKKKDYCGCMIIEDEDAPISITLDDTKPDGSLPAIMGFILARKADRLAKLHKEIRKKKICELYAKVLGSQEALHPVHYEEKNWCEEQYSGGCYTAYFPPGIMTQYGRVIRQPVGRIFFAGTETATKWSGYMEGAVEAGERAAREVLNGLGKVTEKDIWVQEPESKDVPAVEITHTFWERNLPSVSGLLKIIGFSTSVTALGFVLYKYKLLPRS
Briefly: MAO A inhibition, fluorometric method. The format is biochemical. Conditions: for inhibition at 100 µM / inhibition at 1000 µM: read-out: MAO A % inhibition.

In series [1] the target is T2, AChE (Homo sapiens, UniProt P22303). Briefly: Anticholinesterase activity, modified colorimetric Ellman method. Format: biochemical. The following applies: for inhibition at 100 µM / inhibition at 1000 µM: read-out: AChE % inhibition; for Selectivity and indexes: selective for AChE (over BChE).
T2 sequence (P22303 32-614): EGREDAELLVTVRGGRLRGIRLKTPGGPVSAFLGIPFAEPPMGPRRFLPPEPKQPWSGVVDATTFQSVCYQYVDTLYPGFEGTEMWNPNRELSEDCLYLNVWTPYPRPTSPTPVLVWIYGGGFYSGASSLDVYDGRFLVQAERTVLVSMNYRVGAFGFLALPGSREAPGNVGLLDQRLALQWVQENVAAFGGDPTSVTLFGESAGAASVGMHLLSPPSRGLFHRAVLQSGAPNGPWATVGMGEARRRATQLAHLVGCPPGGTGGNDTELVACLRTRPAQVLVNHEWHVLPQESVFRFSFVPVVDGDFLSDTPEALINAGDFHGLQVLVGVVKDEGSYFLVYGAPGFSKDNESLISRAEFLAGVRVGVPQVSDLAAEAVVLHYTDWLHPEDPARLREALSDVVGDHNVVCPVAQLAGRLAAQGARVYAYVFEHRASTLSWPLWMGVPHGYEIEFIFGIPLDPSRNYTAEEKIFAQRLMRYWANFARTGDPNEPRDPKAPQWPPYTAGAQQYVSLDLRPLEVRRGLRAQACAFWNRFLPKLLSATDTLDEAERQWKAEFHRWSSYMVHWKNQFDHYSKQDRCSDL
A further series concerns the target BChE (Homo sapiens, UniProt P06276). Described as above. The following applies: for inhibition at 100 µM / inhibition at 1000 µM: read-out: BChE % inhibition. The format is biochemical.
A further series has as its target T3, recombinant hMAO B (Homo sapiens, UniProt P27338).
T3 sequence (P27338 1-520): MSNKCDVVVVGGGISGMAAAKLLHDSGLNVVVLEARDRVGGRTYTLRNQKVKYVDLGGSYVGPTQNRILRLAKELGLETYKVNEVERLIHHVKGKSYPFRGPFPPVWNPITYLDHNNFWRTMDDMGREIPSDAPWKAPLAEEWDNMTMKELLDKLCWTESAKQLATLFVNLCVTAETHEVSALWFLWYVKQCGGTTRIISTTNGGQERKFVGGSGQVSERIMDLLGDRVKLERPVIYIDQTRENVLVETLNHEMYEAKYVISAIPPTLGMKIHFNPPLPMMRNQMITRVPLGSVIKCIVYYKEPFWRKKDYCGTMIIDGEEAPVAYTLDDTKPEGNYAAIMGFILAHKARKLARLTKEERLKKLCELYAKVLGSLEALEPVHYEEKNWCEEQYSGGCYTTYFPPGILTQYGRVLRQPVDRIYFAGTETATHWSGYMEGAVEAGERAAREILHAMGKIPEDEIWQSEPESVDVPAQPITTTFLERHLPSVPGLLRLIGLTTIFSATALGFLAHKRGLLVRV
Put plainly: MAO B inhibition, fluorometric method. The format is biochemical. The following applies: for inhibition at 100 µM / inhibition at 1000 µM: read-out: MAO B % inhibition.

For series [2], the target named is T2, AChE. Put plainly: Kinetic studies of AChE enzyme inhibition. The format is biochemical. Conditions: Lineweaver-Burk plot.

Where only a bound is given, the exact number is not on record here.

Chain of BChE (P06276 29-602, species assumed): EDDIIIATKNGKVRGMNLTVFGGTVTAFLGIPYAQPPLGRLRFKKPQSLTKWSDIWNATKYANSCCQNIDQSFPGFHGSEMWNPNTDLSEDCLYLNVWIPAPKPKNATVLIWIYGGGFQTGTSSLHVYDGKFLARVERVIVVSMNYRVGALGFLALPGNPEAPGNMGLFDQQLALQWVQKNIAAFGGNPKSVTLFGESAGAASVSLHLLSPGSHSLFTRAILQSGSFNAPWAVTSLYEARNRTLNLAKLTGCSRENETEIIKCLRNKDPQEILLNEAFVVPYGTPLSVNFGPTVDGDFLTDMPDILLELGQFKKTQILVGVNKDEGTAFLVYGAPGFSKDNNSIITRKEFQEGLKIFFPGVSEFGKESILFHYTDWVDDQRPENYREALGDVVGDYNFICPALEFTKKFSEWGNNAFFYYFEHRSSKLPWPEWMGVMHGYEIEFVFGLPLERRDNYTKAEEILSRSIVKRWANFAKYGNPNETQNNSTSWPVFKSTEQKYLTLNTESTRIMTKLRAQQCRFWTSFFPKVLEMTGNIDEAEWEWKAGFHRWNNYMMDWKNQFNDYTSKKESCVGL

`COc1cccc2c1C(=O)c1c(O)c3c(c(O)c1C2=O)C[C@@](O)(C(=O)CO)C[C@@H]3O[C@H]1C[C@H](N)[C@H](O)[C@H](C)O1` [Doxorubicin, reference compound]: the IC50 with NIH/3T3 cell lines is more than 1000 µM.

A word on the inhibition: it is the share of the control response that was lost under treatment. `COc1ccc(C(=O)C=Cc2ccc(NC(=O)CN3CCN(C(C)C)CC3)cc2)cc1OC` [Compound 4c, N-(4-(3-(3,4-Dimethoxyphenyl)-3-oxoprop-1-en-1-yl)phenyl)-2-(4-isopropylpiperazin-1-yl)acetamide]: the IC50 against hMAO A is more than 1000 µM; against AChE [1], more than 100 µM; on BChE it was more than 1000 µM; on recombinant hMAO B (MAO B IC50, tables) it was more than 1000 µM. Besides, the inhibition at 100 µM is 39 ± 0.933% on hMAO A, 48.2 ± 1.98% at AChE [1], 25.5 ± 1.1% at BChE and 28.9 ± 1.02% on recombinant hMAO B. Moreover, the inhibition at 1000 µM was 47.4 ± 0.836% on hMAO A, 79.2 ± 3.03% at AChE [1], 46 ± 1.92% on BChE and 41.1 ± 0.941% on recombinant hMAO B.

Regarding `COCCN1CCN(CC(=O)Nc2ccc(C=CC(=O)c3ccc(OC)c(OC)c3)cc2)CC1` [Compound 4h, N-(4-(3-(3,4-Dimethoxyphenyl)-3-oxoprop-1-en-1-yl)phenyl)-2-(4-(2-methoxyethyl)piperazin-1-yl)acetamide], the IC50 against hMAO A was more than 100 µM; on AChE [1], 0.12 ± 0.005 µM; on BChE, more than 1000 µM; at recombinant hMAO B (MAO B IC50, tables), more than 100 µM. For the same molecule, the inhibition at 100 µM amounted to 28.6 ± 1.05% at hMAO A, 86.5 ± 1.35% at AChE [1], 21.5 ± 0.874% on BChE and 41.3 ± 0.916% on recombinant hMAO B. Besides, the inhibition at 1000 µM on hMAO A was 59.9 ± 2.24%; on AChE [1] it was 90.6 ± 2.75%; at BChE it was 30.2 ± 1.13%; on recombinant hMAO B it was 79.5 ± 2.86%. Further, at AChE [1], the Selectivity and indexes entry is on record as “AChE/>1000”.

As to `COc1ccc(C(=O)C=Cc2ccc(NC(=O)CN3CCN(CCCN(C)C)CC3)cc2)cc1OC` [Compound 4k, N-(4-(3-(3,4-Dimethoxyphenyl)-3-oxoprop-1-en-1-yl)phenyl)-2-(4-(3-(dimethylamino)propyl)piperazin-1-yl)acetamide], the IC50 at hMAO A is more than 100 µM; on AChE [1] it was 0.039 ± 0.001 µM; against BChE, more than 1000 µM; on recombinant hMAO B (MAO B IC50, tables), more than 1000 µM. Moreover, the inhibition at 100 µM at hMAO A stood at 41.3 ± 1.94%; on AChE [1], 94.1 ± 2.96%; on BChE it was 29 ± 1.04%; on recombinant hMAO B, 36.1 ± 0.964%. Moreover, the inhibition at 1000 µM on hMAO A came out at 63 ± 2.86%; on AChE [1] it was 97.4 ± 2.81%; on BChE, 46 ± 1.87%; on recombinant hMAO B, 48.7 ± 1.84%. The Selectivity and indexes entry on hMAO A (selective for MAO-A (over MAO B)) is reported as “MAO-A/>10”; on AChE [1], “AChE/>1000”.

For `COc1ccc(C(=O)C=Cc2ccc(NC(=O)CN3CCN(CCCO)CC3)cc2)cc1OC` [Compound 4i, N-(4-(3-(3,4-Dimethoxyphenyl)-3-oxoprop-1-en-1-yl)phenyl)-2-(4-(3-hydroxypropyl)piperazin-1-yl)acetamide], the IC50 was more than 1000 µM at hMAO A; 0.084 ± 0.003 µM on AChE [1]; more than 1000 µM on BChE; more than 100 µM on recombinant hMAO B (MAO B IC50, tables). Besides, the inhibition at 100 µM is 29.1 ± 0.962% on hMAO A, 90.5 ± 2.83% at AChE [1], 23.6 ± 1.07% on BChE and 47.4 ± 1.62% at recombinant hMAO B. Also, the inhibition at 1000 µM at hMAO A was 41.1 ± 2.06%; on AChE [1], 94.2 ± 2.06%; at BChE, 39.6 ± 1.34%; on recombinant hMAO B, 74.1 ± 2.42%. Besides, the Selectivity and indexes entry on AChE [1] was “AChE/>1000”; on recombinant hMAO B (selective for MAO-B (over MAO A)), “MAO-B/>10”.

With `COc1ccc(C(=O)C=Cc2ccc(NC(=O)CN3CCN(C(C)=O)CC3)cc2)cc1OC` [Compound 4g, 2-(4-Acetylpiperazin-1-yl)-N-(4-(3-(3,4-dimethoxyphenyl)-3-oxoprop-1-en-1-yl)phenyl)acetamide], the IC50 is more than 100 µM against hMAO A; 0.027 ± 0.001 µM against AChE [1]; more than 1000 µM at BChE; 32.2 µM in the series on NIH/3T3 cell lines; 0.114 ± 0.003 µM at recombinant hMAO B (MAO B IC50, tables); less than 1 µM at recombinant hMAO B (MAO B IC50, text). The inhibition at 100 µM was determined as 39.4 ± 1.11% on hMAO A, 96.4 ± 2.5% at AChE [1], 29.9 ± 0.92% on BChE and 89.2 ± 2.17% at recombinant hMAO B. Moreover, the inhibition at 1000 µM on hMAO A came to 69 ± 2.52%; on AChE [1] it was 98 ± 2.56%; on BChE it was 36.4 ± 0.954%; on recombinant hMAO B, 92.3 ± 2.16%. The Selectivity and indexes result at AChE [1] is given as “AChE/>1000”. For the same molecule, the type of inhibition entry at AChE [2] is “reversible and mixed-type inhibitor”. Moreover, in the series on NIH/3T3 cell lines (NIH/3T3, MTT), the “cytotoxicity (in words)” value is “not cytotoxic”.
